# Patent publication US11752162B2, “Compounds and compositions for treating solid tumors by intratumoral administration” (Novartis AG, priority 2017, dated 2023)
# What was measured:
# human TLR7 = molecular target: T1, human TLR7 (Homo sapiens, UniProt Q9NYK1); assay: TLR7 reporter gene assay (NF-kB-driven luciferase) in HEK293 cells
# T1 sequence (Q9NYK1 27-1049): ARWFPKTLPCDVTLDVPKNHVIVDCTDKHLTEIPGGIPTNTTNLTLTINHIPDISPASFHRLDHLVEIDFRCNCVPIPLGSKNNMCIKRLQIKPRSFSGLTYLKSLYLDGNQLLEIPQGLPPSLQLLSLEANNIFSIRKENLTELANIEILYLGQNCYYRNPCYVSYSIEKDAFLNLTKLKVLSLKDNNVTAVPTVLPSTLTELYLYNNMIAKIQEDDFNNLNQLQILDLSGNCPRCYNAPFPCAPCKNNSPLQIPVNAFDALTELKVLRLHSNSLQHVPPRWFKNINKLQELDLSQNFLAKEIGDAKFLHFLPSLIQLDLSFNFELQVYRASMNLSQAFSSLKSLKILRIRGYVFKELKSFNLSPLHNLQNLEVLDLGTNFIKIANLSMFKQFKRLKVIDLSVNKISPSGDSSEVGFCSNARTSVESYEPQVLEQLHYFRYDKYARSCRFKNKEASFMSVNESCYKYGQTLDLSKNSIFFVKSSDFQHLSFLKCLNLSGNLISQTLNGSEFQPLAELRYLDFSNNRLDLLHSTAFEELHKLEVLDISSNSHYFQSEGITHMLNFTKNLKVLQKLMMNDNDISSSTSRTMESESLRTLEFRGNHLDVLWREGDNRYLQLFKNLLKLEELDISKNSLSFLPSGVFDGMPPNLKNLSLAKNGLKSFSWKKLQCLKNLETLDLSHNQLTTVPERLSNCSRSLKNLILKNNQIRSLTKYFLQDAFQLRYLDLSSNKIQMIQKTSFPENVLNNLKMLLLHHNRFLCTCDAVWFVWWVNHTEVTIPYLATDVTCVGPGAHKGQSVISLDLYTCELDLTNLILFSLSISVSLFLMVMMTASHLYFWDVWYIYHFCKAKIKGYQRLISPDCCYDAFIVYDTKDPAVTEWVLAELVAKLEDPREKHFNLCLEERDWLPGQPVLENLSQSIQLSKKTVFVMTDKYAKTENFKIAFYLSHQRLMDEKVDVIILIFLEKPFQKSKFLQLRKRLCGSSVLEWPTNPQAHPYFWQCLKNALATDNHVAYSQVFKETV
# [1] = Wistar rat subcutaneous PK dose study (Example 9); type: in vivo; details: sc, 600 ug, 600 μg Compound 15 s.c., male Wistar rats, plasma
# Method: The pharmacokinetic properties of Compound 15 were examined in naïve male Wistar rats following: • a) a single 200 μL subcutaneous (s.c.) injection of 600 μg of free form Compound 15 in 100 mM Tris buffer pH 7.4; • b) a single 200 μL subcutaneous (s.c.) injection of 50 μg of Compound 15 adsorbed to aluminum hydroxide at a 1:2.5 ratio (w/w) of Compound 15 to aluminum hydroxide-Suspension E described below; • c) a single 200 μL subcutaneous (s.c.) injection of 200 μg of Compound 15 adsorbed to aluminum hydroxide at a 1:2.5 ratio (w/w) of Compound 15 to aluminum hydroxide-Suspension D described below, and • d) a single 200 μL subcutaneous (s.c.) injection of 600 μg of Compound 15 adsorbed to aluminum hydroxide at a 1:2.5 ratio (w/w) of Compound 15 to aluminum hydroxide-Suspension C described below.
# In this study, male Wistar rats (n=3 per group) were injected subcutaneously (s.c.) with 600 μg free Compound 15 or increasing doses of 50, 200 and 600 μg of Compound 15 absorbed to aluminum hydroxide. An injection volume of 200 μL of Suspension E, Suspension D and Suspension C was used to obtain 50, 200 and 600 μg of Compound 15 absorbed to aluminum hydroxide, respectively. The injection volume of 200 μL per rat was not normalized to body weights of the rats. As described above the Compound 15/aluminum hydroxide ratio for Suspension E, Suspension D and Suspension C was fixed at 1:2.5 w/w.
# Blood samples (˜100 μL each) were taken serially via saphenous bleed from each rat until 96 h post dose (see Table 9 for sampling schedule). Blood samples were centrifuged to separate plasma and the plasma samples were frozen at −20° C. prior to analysis using LC/MS/MS (as described in Example 5) to obtain the systemic concentrations of Compound 15.
# [2] = Binding efficiency of Compound 15 to aluminum-containing particles (Alhydrogel) in Tris buffer; type: physicochemical
# Text: The efficiency of binding of compounds of Formula (A) to aluminum-containing particles, as reflected in the percentage (%) bound to aluminum-containing particles, is a function of the (weight/weight) ratio of aluminum-containing particles to compound and to the final concentration (mg/mL) of compound in suspension with aluminum hydroxide. By way of example, the dependence of binding efficiency on the aluminum-containing particles to compound (w/w) ratio is shown in Table 8, where the final concentration of Compound 15 is fixed at 2 mg/mL and the amount of aluminum hydroxide is varied to obtain the desired ratio. The percentage of Compound 15 bound were obtained as described above in the “Materials and Method”, and the suspensions of Compound 15/Alhydrogel® were prepared in 20 mM Tris buffer (pH 7.4) as described above in “Compound 15/Alhydrogel® Suspensions”.
# In addition, for (w/w) ratios of aluminum-containing particles to compound of 1.5:1 and below, the binding efficiency has an apparent pH dependence. The effect of pH on binding efficiency is seen in Table 10, where the binding efficiency of Compound 15 at either a ratio of aluminum hydroxide to Compound 15 (w/w) of 1.5:1 or 2:1 is given shown. The percentage of Compound bound was obtained as described above, although in Tris buffer at differing pH values. The suspensions of Compound 15/Alhydrogel® in Tris buffer at various were prepared as described above in “Compound 15/Alhydrogel® Suspensions”.
# in vivo = details: female, C57/BL6, mouse, iv, 2 mg/kg
# [3] = Compound 15 2 mg/mL, aluminum 0.2 mg/mL, ratio 0.1:1, 20 mM Tris pH 7.4
# [4] = Compound 15 2 mg/mL, aluminum 4 mg/mL, ratio 2:1, 20 mM Tris pH 7.4
smiles,measurement,setting,value
"Cc1cc(OCCOCCC(F)(F)P(=O)(O)O)ccc1CCc1cnc2c(N)nc3cc(CCC(=O)O)ccc3c2c1 [Compound 15, 3-(5-amino-2-(4-(2-(3,3-difluoro-3-phosphonopropoxy)ethoxy)-2-methylphenethyl)benzo[f][1,7]naphthyridin-8-yl)propanoic acid]",EC50,human TLR7,96 nM
same,AUC(0-inf),[1],2560 ng·h/mL
same,Cmax,[1],3660 ng/mL
same,Tmax,[1],15 min
same,half-life,[1],126 min
same,Compound 15 % Bound,[2]; [3],12.5%
same,Compound 15 % Free,[2]; [3],87.5%
same,Compound 15 % Bound,"[2]; Compound 15 2 mg/mL, aluminum 0.5 mg/mL, ratio 0.25:1, 20 mM Tris pH 7.4",25.7%
same,Compound 15 % Free,"[2]; Compound 15 2 mg/mL, aluminum 1 mg/mL, ratio 0.5:1, 20 mM Tris pH 7.4",56.5%
same,Compound 15 % Bound,[2]; [4],99.7%
same,Compound 15 % Free,[2]; [4],0.3%
same,Compound 15 % Bound,"[2]; aluminum hydroxide:Compound 15 ratio (w/w) 1.5:1, Tris buffer pH 8",91.1%
same,Compound 15 % Bound,"[2]; aluminum hydroxide:Compound 15 ratio (w/w) 2:1, Tris buffer pH 7.5",99.7%
same,MRT,in vivo,10.2 min
same,clearance,in vivo,18.1 mL/min/kg
same,half-life,in vivo,60 min
